Measured values as given in patent US5304548A, “Bivalent ligands effective for blocking ACAT enzyme for lowering plasma triglycerides and for elevating HDL cholesterol” (The Upjohn Company, priority 1992, dated 1994).
Converted amounts (≈) assume the structure as drawn. “Also recorded” adds a separate entry of the source.

How the values were obtained:
[1] = test system: acyl-CoA: cholesterol O-acyltransferase enzyme (ACAT); assay: Inhibition of cellular ACAT (esterification of 3H-cholesterol taken up by cells); settings: for IC50: ACAT inhibition; for ACAT inhibition, result in words: comparison bivalent vs. monomeric / by dose
[2] = Antiatherosclerotic activity, SEA quail on high cholesterol diet, oral compound, arteries analysed after eight weeks; assay type: in vivo, SEA Japanese quail; settings: statistically significant
Protocol: For example, five to six week old, male, SEA quails were placed on a high cholesterol diet with one group orally receiving the subject ACAT inhibitor compound Ia (Table 2). After eight weeks the arteries were removed, cleaned and homogenized. Total cholesterol, free cholesterol and triglycerides were measured.

[3] = Antiatherosclerotic activity, Netherland dwarf rabbits on cholesterol-containing atherogenic diet, twelve weeks; assay type: in vivo, Netherland dwarf rabbit; settings: 50 mg/kg/day
Protocol: In another experiment, ACAT inhibitor compound Ia (Table 2) was administered for twelve weeks at 50 mg/kg/day to Netherland dwarf rabbits that were feed a cholesterol-containing atherogenic diet. During the twelve week period serum cholesterol, triglycerides, and carnitine were monitored. At the end of the study the aortas from the drug treated group and a non-drug treated group were examined for atherosclerosis development.

[4] = Hypertriglyceridemia model, female Zucker rats (fafa), compound in chow with cross-over; assay type: in vivo, Zucker rat
Protocol: Female Zucker rats (fafa, 378±3) were maintained on a pelleted chow diet (Purina Chow #5001) or the chow diet which contained Compound Ia (Ia) at a level calculated to deliver 50 mg/kg/day. The Ia containing pellets were prepared from #5001 meal into which the drug had been pre-mixed and subsequently pelletized. […] The plasma was obtained from heparinized blood taken by cardiac puncture and the lipids were measured using an Ektachem DT60 analyzer (Eastman Kodak).

[5] = Hypercholesterolemic model, obese female Zucker rats (fa/fa), dose response of plasma lipids after 1 week; assay type: in vivo, Zucker rat; settings: genetically obese Zucker rats
Protocol: Obese female Zucker rats (fa/fa) weighing 500-600 g were used in the study. These animals are endogenously hypertriglyceridemic and hypercholesterolemic as was described above. Basal plasma triglycerides, cholesterol, and HDL-C levels were determined in individual rats (Ektachem DT 60 Analyzer) which were then randomly assigned to four Compound Ia (Ia) treatment groups (5 mg/kg, n=4; 10 mg/kg, n=4; 20 mg/kg, n=4; 30 mg/kg, n=3). The animals were all individually housed and received Purina Chow pellets (#5002) containing IA at levels calculated to provide the daily doses of Ia described above. After 1 week, all rats were bled by cardiac puncture for determination of plasma triglycerides, cholesterol, and HDL-C. An additional group of rats (n=3) receiving chow alone was run in parallel with the treatment groups as an additional control for the experiment. Each animal acted as its own control since plasma lipid parameters were measured in each animal immediately prior to dosing. The data for triglycerides, cholesterol, and HDL-C were adjusted for this pre-dosing value using a percent change calculation: ((Post-Pre)/Pre)100 . For all 3 measurements, a simple linear model was fit to the percent change value vs log 10 (dose). The logarithmic transformation was used to linearalize the relationship.

[6] = Plasma triglycerides in rats or rabbits whose triglycerides are within normal limits; assay type: in vivo; settings: rats or rabbits with triglycerides within normal limits

| SMILES | % ACAT Inhibition ([1]; 5 μg/ml) | % ACAT Inhibition ([1]; 10 μg/ml) | % ACAT Inhibition ([1]; 15 μg/ml) | also measured |
| --- | --- | --- | --- | --- |
| COc1c2c(c(OC)c3occc13)OC(=CN1CCC(CCCC3CCN(C=C4Oc5c(c(OC)c6ccoc6c5OC)C4=O)CC3)CC1)C2=O [Compound III] | 18% | 29% | 52% |  |
| COc1c2occc2c(OC)c2c(=O)nc(N3CCC(CCCC4CCN(c5nc(=O)c6c(OC)c7ccoc7c(OC)c6o5)CC4)CC3)oc12 [Compound II] | 60% | 89% | 97% | IC50 [1]: 1.8 µg/mL (≈ 2.57 µM) |
| COc1c2c(c(OC)c3occc13)OC(=CNCCCCCCCCNC=C1Oc3c(c(OC)c4ccoc4c3OC)C1=O)C2=O [Compound IX] | 63% | 52% | 51% | ACAT inhibition, result in words [1]: excellent inhibition over its monomeric counterparts; also recorded: surprisingly good inhibitory activity even at the 5 μg/ml dose |
| COc1c2occc2c(OC)c2c(=O)cc(CN3CCC(CCCC4CCN(Cc5cc(=O)c6c(OC)c7ccoc7c(OC)c6o5)CC4)CC3)oc12 [Compound I] | 68% | 84% | 91% | IC50 [1]: 4.2 µg/mL (≈ 5.78 µM); ACAT inhibition, result in words [1]: enhanced potency |
| COc1c2occc2c(OC)c2c(=O)cc(CN3CCC(CCC4CCN(Cc5cc(=O)c6c(OC)c7ccoc7c(OC)c6o5)CC4)CC3)oc12 [Compound Ia] | 87% | 84% | 75% | reduction in the accumulation of esterified cholesterol in the arteries [2]: thirty; IC50 [1]: 0.8 µg/mL (≈ 1.12 µM); mean serum cholesterol level ([3]; control exceeded 2200 mg/dl): 271 mg/dL; atheromatous lesion development ([3]; extensive in controls): negligible atheromatous lesion development; development of hypercholesterolemia ([3]; vs. control): less extensive development of hypercholesterolemia; mean plasma cholesterol ([4]; Ia administration, 50 mg/kg/day, from 126±18): 174 ± 8 mg/dL; plasma cholesterol, cross-over ([4]; controls crossed over to Ia at day 27, from 118±24, three of four animals increased): 164 ± 22 mg/dL; plasma triglycerides, cross-over ([4]; controls crossed over to Ia, 5 day cross-over period, from 2872±742): 656 ± 242 mg/dL; plasma cholesterol after withdrawal ([4]; drug withdrawn day 16): restored essentially to pretreatment levels; plasma triglycerides after withdrawal ([4]; drug withdrawn on day 16, within 1 week): essentially returned to pretreatment levels within 1 week; plasma triglycerides, lowest level reached ([4]; from levels as high as 3000 mg/dl): less than 300 mg/dl; plasma triglycerides ([4]; within 8 days of addition to diet, 50 mg/kg/day, from group mean 2431±446): 260 ± 52 mg/dL; plasma HDL cholesterol, result in words [5]: dose dependent elevation of plasma HDL cholesterol; also recorded: significant linear positive relationship between the % change HDL-C and log 10 (dose); also recorded: ability to elevate HDL-cholesterol; plasma total cholesterol, result in words [5]: without significant changes in plasma total cholesterol; also recorded: hypotriglyceridemic effect can be dissociated from a tendency to elevate plasma cholesterol; plasma triglycerides, result in words [5]: dose-dependent reduction in plasma triglycerides; also recorded: significant negative relationship between % change in plasma triglycerides and log 10 (dose); also recorded: confirmed the triglyceride lowering activity; effect on plasma triglyceride levels [6]: very little effect on plasma triglyceride levels |
| COc1c2occc2c(OC)c2c(=O)cc(CN3CCN(CCN4CCN(Cc5cc(=O)c6c(OC)c7ccoc7c(OC)c6o5)CC4)CC3)oc12 [Compound Ib] | 5% | 6% | 2% |  |
| COc1c2occc2c(OC)c2c(=O)cc(CN3CCN(CC(O)CN4CCN(Cc5cc(=O)c6c(OC)c7ccoc7c(OC)c6o5)CC4)CC3)oc12 [Compound Ic] | 7% | 13% | 15% |  |
| COc1c2occc2c(OC)c2c(=O)cc(CN3CCC(C4CCN(Cc5cc(=O)c6c(OC)c7ccoc7c(OC)c6o5)CC4)CC3)oc12 [Compound Id] | 0% | 0% | 0% |  |
| COc1c2c(c(OC)c3c(=O)cc(CN4CCC(CCC5CCN(Cc6cc(=O)c7c(OC)c8c(c(OC)c7o6)OCC8)CC5)CC4)oc13)CCO2 [Compound V, 7,7'-(1,2-Ethanediylbis(4,1-piperidinediylmethylene))bis-2,3-dihydro-4,9-dimethoxy-5H-furo(3.2-g)(1)benzopyran-5-one] | 63% | 73% | 74% | IC50 [1]: 3.0 µg/mL (≈ 4.19 µM) |
| COc1c2c(c(OC)c3occc13)OC(=CNCCCN1CCN(CCCNC=C3Oc4c(c(OC)c5ccoc5c4OC)C3=O)CC1)C2=O [Compound VIII] | 32% | 41% | 49% |  |
| COc1c2c(c(OC)c3occc13)OC(=CN1CCC(CCCC3CCN(C=C4Oc5c(c(OC)c6ccoc6c5OC)C4=O)CC3)CC1)C2=O [Compound VII] |  |  |  | ACAT inhibition, result in words [1]: active at the high dose tested (15 μg/ml) |
| COc1c2oc([Si](C)(C)C)cc2c(OC)c2c(=O)cc(CN3CCC(CCC4CCN(Cc5cc(=O)c6c(OC)c7cc([Si](C)(C)C)oc7c(OC)c6o5)CC4)CC3)oc12 [Compound VI] | 18% | 29% | 52% |  |
| COc1c2occc2c(OC)c2c(=O)cc(CN3CCC(C)CC3)oc12 [IV, reference compound] | 10% | 27% | 39% | ACAT inhibition, result in words [1]: reduced percent ACAT inhibition |
| COc1c2c(c(OC)c3occc13)OC(=CNC1CCCCC1)C2=O [reference compound] | 47% | 55% | 65% |  |
| COc1c2c(c(OC)c3occc13)OC(=CNCc1ccccc1)C2=O [reference compound] | 50% | 66% | 78% |  |
